# Source: article PMC3351140 (MedChemComm, 2011)
# Residue numbers refer to the chain shown, from its start. “And” between values parts separate entries of the source, which are not always exact repeats. Equal entries are not always repeated.
# Assays:
# [1] = target: T1, N370S glucocerebrosidase (GCase) (Homo sapiens, UniProt P04062, N409S); test: N370S spleen; format: biochemical; conditions: for IC50: N370S tissue homogenate, 4-methylumbelliferone β-D glucopyranoside substrate (blue substrate); for fold loss of activity vs 8a: compared with 8a
# T1 sequence (P04062 40-536 N409S): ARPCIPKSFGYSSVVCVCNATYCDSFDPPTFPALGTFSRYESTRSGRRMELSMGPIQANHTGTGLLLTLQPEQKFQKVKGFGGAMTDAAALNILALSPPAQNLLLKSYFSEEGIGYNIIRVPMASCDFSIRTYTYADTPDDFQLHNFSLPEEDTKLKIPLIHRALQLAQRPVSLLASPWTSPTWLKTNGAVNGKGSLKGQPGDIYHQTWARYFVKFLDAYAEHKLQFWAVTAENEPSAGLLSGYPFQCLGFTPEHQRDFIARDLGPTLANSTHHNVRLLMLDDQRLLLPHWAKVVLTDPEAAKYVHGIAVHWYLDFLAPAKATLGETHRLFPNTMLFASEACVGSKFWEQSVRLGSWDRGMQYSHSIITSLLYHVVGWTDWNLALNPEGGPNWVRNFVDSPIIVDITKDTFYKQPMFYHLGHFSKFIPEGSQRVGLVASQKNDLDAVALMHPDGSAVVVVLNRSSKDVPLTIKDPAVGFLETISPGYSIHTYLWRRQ
# GCase [2] = target: T2, GCase (Homo sapiens, UniProt P04062); test: Thermofunctional stabilization of GCase; format: biochemical; conditions: enzyme incubated at 51 °C for 60 minutes
# T2 sequence (P04062 40-536): T1 sequence (P04062 40-536 N409S) with S370N
# [3] = tested on: fibroblasts from patients with genotype N370S/N370S; test: Translocation of N370S GCase to lysosomes, confocal microscopy; format: cell-based, human; conditions: 1 μM compound, five days, vs vehicle
# human SST4 receptor = human SST4 receptor (Homo sapiens, UniProt P31391); test: human SST4 receptor binding affinity assay; conditions: compared with 27
# human SST4 receptor, sequence (P31391 whole entry): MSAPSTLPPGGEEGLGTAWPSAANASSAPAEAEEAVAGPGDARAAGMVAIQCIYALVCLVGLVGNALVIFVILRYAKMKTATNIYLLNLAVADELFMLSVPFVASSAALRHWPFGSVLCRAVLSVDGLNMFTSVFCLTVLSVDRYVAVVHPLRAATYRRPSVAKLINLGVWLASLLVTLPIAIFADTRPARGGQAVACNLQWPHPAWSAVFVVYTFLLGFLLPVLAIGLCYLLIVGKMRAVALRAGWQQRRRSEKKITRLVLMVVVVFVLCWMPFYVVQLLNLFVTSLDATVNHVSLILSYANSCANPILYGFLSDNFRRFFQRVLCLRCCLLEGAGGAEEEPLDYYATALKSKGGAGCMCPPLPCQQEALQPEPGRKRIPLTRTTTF
# GCase [4] = target: T2, GCase; test: GCase inhibition with alternative substrates; format: biochemical
# GCase [5] = target: T2, GCase; test: Isolated enzyme GCase assay; format: biochemical
# [6] = Pharmacokinetics after intraperitoneal administration to mice; format: in vivo, male C57BL/6 mice
# [7] = Mouse liver microsome stability; format: in vitro ADME; conditions: 60 minutes, in the presence of NADPH
structure (smiles),measurement,setting,value
CC(=O)NCCCNC(=S)NCCCN(Cc1ccc(Cl)cc1)c1ccc(Br)cn1 [13b],IC50,[1],inactive
"OC[C@H]1CNC[C@@H](O)[C@@H]1O [Isofagomine, reference compound]",retention of GCase function after heating,GCase [2],retain considerable function
S=C(NCCCc1cnc[nH]1)NCCCN(Cc1ccc(Cl)cc1)c1ccc(Br)cc1 [compound 24],fold more potent than compound 27 (GCase),[1]; compared with 27,about 10 fold
same,co-localization of N370S GCase with LAMP-1 (lysosomes),[3],Increased co-localization
same,fold less potent than 27 (SST4 binding),human SST4 receptor,about 5 fold
S=C(NCCCc1c[nH]cn1)NCCCN(Cc1ccc(Cl)c(Cl)c1)c1ccc(Br)cn1 [8i],retention of GCase function after heating,GCase [2],retain considerable function
same,inhibition of hydrolysis of resorufin-β-glucopyranoside (red substrate),GCase [4],effectively inhibited
same,inhibitory activity in isolated enzyme assays,GCase [5],displayed inhibitory activity
same,co-localization of N370S GCase with LAMP-1 (lysosomes),[3],Increased co-localization
same,"Plasma concentration, Mean","[6]; 30 mg/kg IP, 0 hr",BQL
same,"Plasma concentration, individual","[6]; 30 mg/kg IP, 0 hr",BQL
same,"Plasma concentration, individual","[6]; 30 mg/kg IP, 0.083 hr, listed as ML156 (8i)",1820 ng/mL and 1410 ng/mL
same,"Plasma concentration, individual","[6]; 30 mg/kg IP, 0.25 hr, listed as ML156 (8i)",3010 ng/mL and 1640 ng/mL
same,"Plasma concentration, individual","[6]; 30 mg/kg IP, 0.5 hr, listed as ML156 (8i)",2270 ng/mL and 3270 ng/mL
same,"Plasma concentration, individual","[6]; 30 mg/kg IP, 1 hr, listed as ML156 (8i)",3770 ng/mL and 3150 ng/mL
same,"Plasma concentration, individual","[6]; 30 mg/kg IP, 2 hr, listed as ML156 (8i)",3840 ng/mL
same,"Plasma concentration, individual","[6]; 30 mg/kg IP, 4 hr, listed as ML156 (8i)",2030 ng/mL and 2570 ng/mL
same,"Plasma concentration, individual","[6]; 30 mg/kg IP, 8 hr, listed as ML156 (8i)",1190 ng/mL and 357 ng/mL and 714 ng/mL
same,"Plasma concentration, individual","[6]; 30 mg/kg IP, 12 hr, listed as ML156 (8i)",127 ng/mL and 80.7 ng/mL
same,"Plasma concentration, individual","[6]; 30 mg/kg IP, 24 hr, listed as ML156 (8i)",12.6 ng/mL and 9.98 ng/mL
same,brain exposure,"[6]; brain, additional pharmacokinetic studies",reasonable levels of the compound also reached the brain
same,parent molecule remaining,[7],58%
CN(CCCN(Cc1ccc(Cl)cc1)c1ccc(Br)cn1)C(=S)NCCCc1cnc[nH]1 [compound 26],fold loss of activity vs 8a,[1],2 fold
CN(CCCc1cnc[nH]1)C(=S)NCCCN(Cc1ccc(Cl)cc1)c1ccc(Br)cn1 [compound 27],fold loss of activity vs 8a,[1],10 fold
CCCCNC(=S)NCCCN(Cc1ccc(Cl)c(Cl)c1)c1ccc(Br)cn1 [compound 25],IC50,[1],inactive
